From PMC6884535, “Detection of colonic neoplasia in vivo using near-infrared-labeled peptide targeting cMet” (Scientific Reports, 2019)
Where a SMILES comes first, the peptide text is derived from it. Where no end group is shown, it is not given here. The star is where a group is joined. X1 = CN1/C(=C/C=C/C=C/C2=[N+](CCCCCC(=O)*)c3ccc4ccccc4c3C2(C)C)C(C)(C)c2c1ccc1ccccc21

Assays:
CCD841 cells = experiment: Alamar blue growth assay, CCD841 cells; assay type: cell-based, human; settings: 48 hours, 37 °C; HGF 25 ng/mL or QQT*-Cy5.5 5 or 100 μM; 3 independent experiments
Description: (§1) An alamar blue assay was performed using HT29 and CCD841 cells. After culturing in serum free media overnight, ~3 × 10^3 cells were seeded per well in serum free media in 96 well plates at a final volume of 100 µL per well. […] Alamar blue reagent (10 µL) was added in amounts equal to 10% of the volume in the well, and incubated at 37 °C for 4 hours. Fluorescence with excitation at λex = 530–560 nm, and emission at λex = 590 nm was measured.

[1] = system: vascular endothelial growth factor A (VEGFA); settings: IRDye800-labeled, intravenous, n = 17 FAP patients, cited from earlier work
Excerpt: Large molecules, such as antibodies, that have high target affinity are also being utilized for CRC imaging. Bevacizumab is a monoclonal antibody that has been repurposed for imaging by labeling with IRDye800 to detect overexpressed vascular endothelial growth factor A (VEGFA)[46]. This imaging agent was intravenously administered in a total of n = 17 patients with familial adenomatous polyposis (FAP), and n = 51 adenomas were detected. A median T/B ratio = 1.84 was achieved using a dose of 25 mg. Small adenomas with dimensions< 3 mm were detected. Antibodies have long circulation times that l ...

p-ERK1/2 = experiment: Western blot of p-ERK1/2 in HT29 cells; assay type: cell-based, human; settings: HT29, serum-starved; HGF 25 ng/mL or QQT*-Cy5.5 5 or 100 μM; 10, 30, 120 min
Description: (§2) Peptides are added at concentrations of 5 and 100 μM for 10, 30, and 120 min. Anti-cMet antibody (#8198, Cell Signaling), phospho-cMet (Tyr1234/1235) antibody (#3077, Cell Signaling), anti-AKT (#4691, Cell Signaling), anti-phospho-AKT (#9271, Cell Signaling), anti-ERK1/2 (#ab17942, Abcam,), anti-phospho-ERK1/2 (#ab50011, Abcam), and anti-tubulin (#32-2600, Invitrogen) were used per manufacturer’s instructions.

p-AKT = experiment: Western blot of p-AKT in HT29 cells; assay type: cell-based, human; settings: HT29, serum-starved; HGF 25 ng/mL or QQT*-Cy5.5 5 or 100 μM; 10, 30, 120 min
Description: as §2

HT29 cells = experiment: Alamar blue growth assay, HT29 cells; assay type: cell-based, human; settings: 48 hours, 37 °C; HGF 25 ng/mL or QQT*-Cy5.5 5 or 100 μM; 3 independent experiments
Description: as §1

p-cMet = experiment: Western blot of p-cMet in HT29 cells; assay type: cell-based, human; settings: HT29, serum-starved; HGF 25 ng/mL or QQT*-Cy5.5 5 or 100 μM; 10, 30, 120 min
Description: as §2

cMet [2] = biological target: T1, cMet (Homo sapiens, UniProt P08581); experiment: Competition of unlabeled peptide for QQT*-Cy5.5 binding to HT29 cells; settings: unlabeled peptide 0, 25, 50, 100, 200 and 400 μM, then 5 μM Cy5.5-labeled peptide, 3 replicate slides, 5 cells per slide
T1 construct: endogenous in cells; host or cells: HT29 human colorectal cancer cells (ATCC)
Description: Unlabeled peptides at 0, 25, 50, 100, 200 and 400 μM were first added and then incubated with 5 μM of Cy5.5-labeled peptides. […] The cells were fixed with 4% PFA, and mounted with ProLong Gold reagent containing DAPI.

mouse cMet-ECD = experiment: Pull-down assay with mouse cMet-ECD; assay type: binding; settings: peptide immobilized on EHS beads; Western blot; by comparison with TLQ*
Description: Interactions between peptide and mouse cMet were evaluated using a pull-down assay. Peptides were immobilized on EHS active beads (17-0906-01, GE), and incubated with purified mouse cMet-ECD protein (50622-M08H, Sino Biological). After washing, bound proteins were detected by Western blot.

cMet [3] = experiment: In vivo fluorescence endoscopy of colonic adenomas in CPC;Apc mice; parameters: species or system mouse; settings: intra-rectal 100 μM, 1.5 mL, control peptide 3 days later
Description: CPC;Apc mice were used for in vivo imaging. This mouse was genetically engineered to sporadically delete an adenomatous polyposis coli (APC) allele under control of a Cdx2 promoter (CDX2P-9.5NLS-Cre) to spontaneously form either flat or polypoid adenomas in the distal colon. Prior to imaging, the mice were fasted for 4–6 hours. Anesthesia was induced and maintained via a nose cone with inhaled isoflurane mixed with oxygen at concentrations of 2–4% at a flow rate of 0.5 L/min. A rigid small animal endoscope (Karl Storz Veterinary Endoscopy) was inserted into the rectum. White-light illumination was used first to identify the presence of adenomas. Peptides (100 μM, 1.5 mL) were delivered intra-rectally through the instrument channel. After 5 min for incubation, the colon was rinsed with warm tap water 3X to remove stool and debris prior to image collection. After 3 days for the signal from the target peptide to clear, the same mice were imaged using the control peptide. A ratio of the fluorescence and reflectance images was determined to correct for differences in distance and geometry over the image field-of-view (FOV)[33]. […] The mean fluorescence intensity was used to calculate the target-to-background (T/B) ratios. Images were processed and analyzed using custom software in Matlab (Mathworks)[34].

cMet [4] = biological target: T1, cMet; experiment: Confocal microscopy of binding to HT29 (cMet+) versus SW480 (cMet-) CRC cells
Description: (§3) The cells were blocked with 1X PBS plus 2% BSA for 1 hour at 4 °C, and were incubated with 5 μM of peptide for 10 min at room temperature (RT) in the dark, washed 3×, and fixed with 4% PFA for 5 min, washed with 1X PBS, and then mounted on glass slides with ProLong Gold reagent containing DAPI (Invitrogen). A 1:3000 dilution of primary monoclonal rabbit anti-cMet antibody (#8198, Cell Signaling Technology) was incubated with the cells in vitro as a positive control. Afterwards, the cells were incubated with a 1:500 dilution of AF488-labeled secondary goat ant-rabbit immunoglobulin G antibody (#A-11029, Life Technologies), and then mounted on glass slides with ProLong Gold reagent containing DAPI. Confocal fluorescence images were collected using a 63X oil-immersion objective (Leica SP5 Inverted 2-Photon FLIM confocal). Fluorescence intensities were quantified using custom Matlab software (Mathworks).

cMet [5] = biological target: T1, cMet; experiment: Confocal microscopy of binding to HT29 cells with siRNA knockdown of cMet
Description: as §3
Expression of cMet by HT29 cells was knocked down using siRNA (siRNA1, SASI_Hs01_00133002, Sigma). MISSION® siRNA Universal Negative Control (SIC001, Sigma) was used for control. Cells were transfected with Lipofectamine 2000 (11668027, Invitrogen) per manufacturer instructions, and incubated with 5 μM of peptide for 5 min. A 1:3000 dilution of primary monoclonal rabbit anti-cMet antibody (Cell Signaling Technology, #8198) was used for positive control.

cMet [6] = experiment: Confocal microscopy of binding to S114 (cMet+) versus NIH3T3 (cMet-) cells; parameters: species or system mouse
Description: Human HT29, SW480, CCD841 colorectal cancer cells and mouse NIH 3T3 embryonic fibroblast cells were obtained from the ATCC. S114 cells (NIH 3T3 cells transformed to express cMet) were provided by courtesy of G Vande Woude (Van Andel Institute). McCoy’s 5A Medium (Gibco) was used for HT29 cells. Dulbecco’s Modified Eagle Medium (Gibco) were used for SW480, NIH3T3, and S114 cells. Eagle’s Minimum Essential Medium (Lonza) was used for CCD841. All cells were cultured at 37 °C in 5% CO2, and supplemented with 10% fetal bovine serum. Reagents for peptide synthesis were obtained from Anaspec (Anaspec) and AAPPTEC (AAPPTEC) at the highest available grade (>99% purity), and were used without further purification. Solvents and other chemical reagents were purchased (Sigma-Aldrich) unless stated otherwise.
as §3

[7] = biological target: T2, cMet on human HT29 CRC cells (human (endogenous in HT29), UniProt P08581 25-1390); experiment: flow cytometry on cells; HT29 cells incubated with peptide at 0-200 nM for 1 hour at 4 °C; apparent dissociation constant by nonlinear regression; settings: one partner purified
T2 construct: cMet, transmembrane tyrosine kinase receptor (hepatocyte growth factor receptor), human; Alpha and beta chains are cut from one precursor; written as one chain; also called HT29 cells (cMet+); source: endogenous, on HT29 cells

[8] = biological target: T2, cMet on human HT29 CRC cells; experiment: immunostaining of cells or tissue; confocal fluorescence microscopy of cells incubated with 5 μM Cy5.5-labeled peptide (5-10 min, RT), washed, fixed with 4% PFA; HT29 transfected with siCL or sicMet; HT29 versus SW480; S114 versus NIH3T3; settings: one partner purified
[9] = 6 replicate slides per condition, 10 cells per slide

T2 sequence (P08581 25-1390): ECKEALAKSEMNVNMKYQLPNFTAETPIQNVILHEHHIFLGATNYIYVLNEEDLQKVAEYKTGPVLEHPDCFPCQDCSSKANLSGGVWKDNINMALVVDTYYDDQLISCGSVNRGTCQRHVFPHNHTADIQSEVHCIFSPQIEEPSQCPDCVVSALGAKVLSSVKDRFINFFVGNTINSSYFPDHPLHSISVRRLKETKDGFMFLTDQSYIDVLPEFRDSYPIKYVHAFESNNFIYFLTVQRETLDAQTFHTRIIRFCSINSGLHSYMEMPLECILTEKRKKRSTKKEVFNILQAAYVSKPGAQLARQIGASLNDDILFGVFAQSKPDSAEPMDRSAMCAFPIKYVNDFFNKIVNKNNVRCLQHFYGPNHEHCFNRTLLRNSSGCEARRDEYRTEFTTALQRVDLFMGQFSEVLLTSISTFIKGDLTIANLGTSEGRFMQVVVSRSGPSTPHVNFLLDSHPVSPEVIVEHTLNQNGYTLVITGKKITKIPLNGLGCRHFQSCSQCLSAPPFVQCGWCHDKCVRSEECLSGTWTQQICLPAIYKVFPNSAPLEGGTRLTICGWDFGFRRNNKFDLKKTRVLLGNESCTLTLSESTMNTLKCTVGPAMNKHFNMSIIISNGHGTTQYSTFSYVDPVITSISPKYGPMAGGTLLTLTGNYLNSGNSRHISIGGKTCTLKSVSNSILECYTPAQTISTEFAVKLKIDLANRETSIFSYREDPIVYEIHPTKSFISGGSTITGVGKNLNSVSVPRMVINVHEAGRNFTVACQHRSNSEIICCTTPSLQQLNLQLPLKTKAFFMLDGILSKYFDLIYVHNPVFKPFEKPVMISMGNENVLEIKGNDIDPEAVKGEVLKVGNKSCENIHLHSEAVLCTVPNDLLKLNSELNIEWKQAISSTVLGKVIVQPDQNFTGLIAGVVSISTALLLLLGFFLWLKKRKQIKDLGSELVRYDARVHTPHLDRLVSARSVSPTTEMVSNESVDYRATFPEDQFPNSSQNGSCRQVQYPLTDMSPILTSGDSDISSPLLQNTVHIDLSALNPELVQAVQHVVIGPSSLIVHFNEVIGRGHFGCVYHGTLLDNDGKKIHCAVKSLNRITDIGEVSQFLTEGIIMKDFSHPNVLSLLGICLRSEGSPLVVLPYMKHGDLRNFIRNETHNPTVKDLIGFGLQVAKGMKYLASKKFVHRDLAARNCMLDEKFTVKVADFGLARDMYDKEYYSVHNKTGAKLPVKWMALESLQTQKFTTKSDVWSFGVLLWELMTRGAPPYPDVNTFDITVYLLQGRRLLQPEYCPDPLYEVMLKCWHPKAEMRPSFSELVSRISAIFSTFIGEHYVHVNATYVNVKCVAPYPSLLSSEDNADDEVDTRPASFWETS
T1 sequence (P08581 25-1390): as above

Molecule: CC(C)C[C@H](NC(=O)[C@H](CO)NC(=O)[C@H](Cc1c[nH]c2ccccc12)NC(=O)[C@H](CC(N)=O)NC(=O)[C@@H](NC(=O)[C@H](CCC(N)=O)NC(=O)[C@@H](N)CCC(N)=O)[C@@H](C)O)C(=O)NCC(=O)NCC(=O)NCC(=O)N[C@@H](CO)C(=O)N[C@@H](CCCCNC(=O)CCCCC[N+]1=C(/C=C/C=C/C=C2/N(C)c3ccc4ccccc4c3C2(C)C)C(C)(C)c2c1ccc1ccccc21)C(N)=O [QQT*-Cy5.5] (H-QQTNWSLGGGSK(X1)-NH2)
- Growth of CCD841 normal colon cells (CCD841 cells): no effect on growth

Molecule: Bevacizumab: monoclonal antibody repurposed for imaging by labeling with IRDye800 to detect overexpressed VEGFA
- Median T/B ratio ([1]; 25 mg): 1.84
- Dimensions of small adenomas detected [1]: < 3 mm
- Number of adenomas detected [1]: 51

Molecule: HGF: recombinant human hepatocyte growth factor (HGF, 294-HG-005, R&D), a known ligand for cMet
- Phosphorylation of downstream ERK1/2 (p-ERK1/2) (p-ERK1/2): strong phosphorylation activity
- Growth of CCD841 normal colon cells (CCD841 cells): not (C) CCD841 cells
- Phosphorylation of downstream AKT (p-AKT) (p-AKT): strong phosphorylation activity
- Growth of HT29 cells (HT29 cells): increased growth
- Phosphorylation of cMet (p-cMet) (p-cMet): strong phosphorylation activity

Molecule: QQTNWSL [QQT*]
- Competition: fluorescence intensity of QQT*-Cy5.5 binding with increasing unlabeled peptide (cMet [2]): decreased significantly
- Pull-down band for binding to mouse cMet-ECD (mouse cMet-ECD): strong band

Molecule: TLQWNQS [TLQ*, unlabeled control peptide TLQ*]
- Competition: fluorescence intensity of QQT*-Cy5.5 binding with increasing unlabeled peptide (cMet [2]): not with TLQ*

Molecule: TLQWNQS [TLQ*-Cy5.5]
- Fluorescence from representative polyp (cMet [3]): minimal signal
- Fluorescence from representative flat lesion (cMet [3]; same lesion): minimal signal
- Change in mean intensity, HT29 versus SW480 (in words) (cMet [4]; [9]): non-significant decrease
- Binding to surface of HT29 cells (cMet+) (cMet [4]; HT29, confocal, peptide 5 μM 10 min RT, antibody 1:3000): minimal binding
- Binding to SW480 cells (cMet-) (cMet [4]; SW480, confocal, peptide 5 μM 10 min RT, antibody 1:3000): minimal binding
- Change in fluorescence intensity, siCL versus sicMet (in words) (cMet [5]; HT29, ANOVA on log-transformed data, 6 replicate slides per condition): non-significant decrease
- Binding to surface of HT29 cells transfected with siCL (control) (cMet [5]; HT29 siCL, peptide 5 μM, antibody 1:3000, confocal fluorescence): minimal binding
- Binding to HT29 cells transfected with sicMet (cMet knockdown) (cMet [5]; HT29 sicMet, peptide 5 μM, 5 min, antibody 1:3000, confocal fluorescence): little binding
- Change in mean intensity, S114 versus NIH3T3 (in words) (cMet [6]; [9]): non-significant increase
- Binding to NIH3T3 cells (cMet-) (cMet [6]; NIH3T3, confocal, peptide 5 μM 10 min RT, antibody 1:3000): nominal binding
- Binding to surface of S114 cells (cMet+) (cMet [6]; S114, confocal, peptide 5 μM 10 min RT, antibody 1:3000): minimal binding

B1: QQT*-Cy5.5 (peptide)
peptide: QQTNWSLGGGSK-{Cy5.5}
modifications: not fully specified
notes: heptapeptide selected by phage display (Ph.D.-7 library) against the extra-cellular domain of cMet; linker between the peptide and Cy5.5; also called QQTNWSL; cMet peptide; source: synthetic peptide (Fmoc solid-phase synthesis, purified with HPLC)
- Kd [7]: 57 nM
- fold change of fluorescence intensity against TLQ*-Cy5.5 [8]: 8.1 fold
- fold change of fluorescence intensity, siCL versus sicMet transfected cells [8]: 2.9 fold
